Key:
[1] = tested on: Human immortalized sebocytes; assay: Cleaved Caspase 3 Assay; type: cell-based; conditions: for cleaved caspase 3: any concentration, 2, 3 and 5 day treatment; for sebocyte apoptosis: conditions of this in vitro assay
Procedure: This assay examines the ability of compounds to induce apoptosis by measuring Caspase 3 generated by proteolytic processing. Cells were seeded in tissue culture treated clear bottom plates. Compounds were added in the presence of Liver X Receptor (LXR) agonist (T0901317) and 1 μM insulin for 2, 3 and 5 days. For the 5 day treatment fresh compounds were added at Day 3. After the treatment period lysates were prepared according to the manufacturer's instructions and frozen at −80° C. until the day of the assay.
Protocol—Day 1: Human immortalized sebocytes were seeded at 10,000 cells/well in 96-well, clear bottom plates in Sebocyte Growth Medium and allowed to attach overnight at 37° C. Day 2: Medium was refreshed by removing seeding medium and adding fresh Sebocyte Growth Medium. Cells were maintained at 37° C. to allow degradation of the temperature sensitive SV40 large T antigen. Day 4: 1000× stocks (in DMSO) of each compound were prepared (3 mM and 100 μM) and were diluted 1:1000 in Sebocyte Treatment Media containing 1 μM T0901317 and 1 μM Insulin to give a final top concentration of 3000 nM and 100 nM for further 10-fold dilutions in the same medium according to the plate map below. The cell medium was removed and replaced with Sebocyte Treatment Medium containing 1 μM T0901317, 1 μM Insulin, compound dilution, or vehicle (DMSO) as per plate maps for a 2, 3 and 5 day treatment. For untreated controls, media was removed and replaced with Sebocyte Treatment Media only (no T091317 or Insulin). For the 5 day treatment cells were retreated as described above on Day 7. Day 6, 7 or Day 9: 1) After treatment, the plate was centrifuged at 300×g for 10 minutes. 2) After centrifugation, the medium was removed the cells rinsed with ice-cold PBS and then centrifuged again at 300×g for 10 minutes. 3) After centrifugation the PBS was removed and replaced with 30 μl/well and left on ice for 5 minutes. 4) After 5 minutes, the lysates were frozen at −80° C. until the day of the assay. Day of Assay: Buffers and reagents were prepared according to the manufacturer's instructions. 1) 25 μl of lysate was added to the corresponding well of a 96 well black clear bottom plates. 2) 200 μl of the prepared substrate solution B was added to each well. 3) After 1 hr incubation in the dark, the relative fluorescence was determined using the following settings: 380ex/420em.
Data analysis—IC50s were determined for each test sample by using appropriate curve fits in GraphPad Prism (v.7). […]

[2] = tested on: Human immortalized sebocytes; assay: 14C-Acetate Sebocyte Lipid Accumulation Assay; type: cell-based; conditions: day 2, 16 hour treatment with 1 μM T0901317, then 1 μM insulin for 4 hours
Procedure: This assay examines the ability of compounds to modulate the incorporation of label into de novo lipid synthesis. Cells were seeded in collagen 1-coated Scintiplates. Compounds were added in the presence of Liver X Receptor (LXR) agonist (T0901317) overnight. The medium was replaced with treatments and stimulated with 1 μM insulin for 4 hours in Labeling Medium containing 14C-acetate. Label incorporation was determined by washing the cells to removed excess label and allowing the cell layer to air dry before assessing labeling through Scintiplate counting normalized to Cell Titer Blue viability reagent.
Protocol—Day 1: Human immortalized sebocytes were seeded at 10,000 cells/well in a 96-well white, clear bottom collagen 1-coated Scintiplate in Sebocyte Growth Medium and allowed to attach overnight at 37° C. Day 2: Medium was refreshed by removing seeding medium and adding fresh Sebocyte Growth Medium. […] 3) Plates were read at Ex. 560 Em.590 with a cutoff of 570 nm for CTB signal. […] 5) 14C-acetate labeling was determined by scintillation counting in a MicroBeta TriLux Scintillation Counter.
Data analysis—Cell viability is presented as cell titer blue fluorescence reading (RFU) for each treatment. […] The percent of LXR agonist+Insulin-stimulated lipogenesis was calculated by taking the ratio of each CPM measure over the corresponding cell titer blue measure. […]

| Compound | cleaved caspase 3 [1] | sebocyte apoptosis [1] | IC50 ([2]; Homo sapiens) | IC50 [2] |
| --- | --- | --- | --- | --- |
| Cc1nc(C)c(-c2ccc([C@H]3CC[C@H](CC(=O)O)CC3)cc2)nc1C(N)=O [DMVT-503, 2-((1R,4R)-4-(4-(6-carbamoyl-3,5-dimethylpyrazin-2-yl)phenyl)cyclohexyl)acetic acid] | No significant cleaved caspase 3 detected | did not induce sebocyte apoptosis | 49.6 nM |  |
| CC1=C(/C=C/C(C)=C/C=C/C(C)=C\C(=O)O)C(C)(C)CCC1 [Mix 13-cis-RA, 13-cis-retinoic Acid, reference compound] | No significant cleaved caspase 3 detected | did not induce sebocyte apoptosis |  | 333 nM |

— patent US20210260055A1, “TOPICAL FORMULATIONS OF DGAT1 INHIBITORS AND THEIR METHODS OF USE” (Dermavant Sciences GmbH, priority 2018, published 2021)
